Data published in patent US6627601B2, “Neuroprotective peptides and uses thereof” (Protarga, Inc., priority 1998, dated 2003).
Read-outs that look alike come from different tables or passages of the source.

Legend:
[1] = tested on: rat brain hippocampal cells; experiment: glutamate induced neurotoxicity in hippocampal neuron cultures; type: cell-based; conditions: 3 days of culture
Description: The effect of the neuroprotective peptides was tested on rat brain hippocampal cells. Rat brain hippocampi were isolated by dissection of 18 day old rat fetuses. […] The cultures were then incubated for 30 min at 37° C. after which glutamate was added at the concentrations indicated. Cells were counted after 3 days of culture; healthy cells and total cells were counted.

[2] = fura-2 calcium chelation assay in cells loaded with fura-2 and calcium; type: cell-based
Description: Any of the foregoing peptides can be tested for calcium binding by well known assays of calcium chelation (see, e.g. Cornell-Bell et al., Science 247:470-473, 1990; Cornell-Bell et al., Cell Calcium 12:185-204, 1991). For example, one preferred method employs the calcium sensitive dye fura-2 to measure the chelation of calcium by the isolated peptides. In such an assay, cells are loaded with fura-2 and calcium. […] An isolated peptide then is added to the cells and the diminution of fura-2 fluorescence is determined. Dose response experiments can be performed to determine the concentration at which the isolated peptide completely eliminates fura-2 fluorescence. For example, the isolated peptide of SEQ ID NO:4 completely eliminates fura-2 fluorescence at a concentration of 1 pg/ml in the cell culture medium.
Peptides, including variant peptides, can be tested for retention for any of the foregoing properties. For example, the peptides can be tested for in vitro properties initially to determine which of the variant peptides retain the ability to bind calcium ions and/or stimulate the expression of transcription factors. In vitro assays of calcium binding include contacting the peptide with an environment which contains calcium, such as a cell preloaded with calcium and a fluorescent calcium-sensitive dye, and determining the calcium binding of the peptide Peptides which retain one or more of these properties can then be used in in vivo assays of neuroprotection such as the Mongolian gerbil assay described below. Neuroprotective peptides or their variants which are conjugated to targeting compounds, labels, blood-brain barrier carriers and the like can be tested for retention of neuroprotective activity as well as for the activity of the conjugated compound (e.g., appropriate targeting, detectable labeling, ability to cross the blood-brain barrier, etc.).

neurons = conditions: compared with 68 kilodalton parent protein; Shashoua et al., 1992; cited from earlier work
[3] = tested on: NF-IL6 transcription factor; experiment: EMSA of NF-IL6 in nuclear extracts of neuroblastoma cultures; type: cell-based, mouse
Description: (§1) It was determined that NMI 9236 can turn on specific genes related to neuronal growth in neuroblastoma tissue culture experiments.
(§2) The activation of specific transcription factors was assayed using an electrophoretic mobility shift assay (EMSA, for review see: Kerr, Meth. Enzymol 254:619-632, 1995). Nuclear extracts were prepared from stimulated neuroblastoma cell cultures (10^7 cells/sample) using classical nuclear extraction protocols (Dignam et al., Nucl. Acids Res. 11: 1475-1489, 1983; Prywes and Roeder, Cell 47: 777-784, 1986). A 0.5 pmol aliquot of a synthetic ^32P labeled oligomer duplex (with a sequence known to bind a specific transcription factor, see Table 2) was mixed with 3 μg of nuclear extract protein, and the mixture incubated at room temperature for 20 minutes. Subsequent electrophoresis under non-denaturing conditions through 4% polyacrylamide gels were used to separate and resolve the high MW protein/DNA complexes (transcription factor/DNA oligomer duplex) form low MW uncomplexed DNA oligomers. Autoradiography was used to visualize and quantify the complexes formed (see FIG. 6).
Identification of the observed band as NF-IL6 ([…]) was based on its electrophoretic migration, as well as antibody studies (data not shown).

[4] = tested on: gerbil model for ischemic stroke (5 minute bilateral carotid occlusion); experiment: general locomotor activity (GLA) of gerbils after forebrain ischemia; type: in vivo, male Mongolian gerbil
Text: The gerbil (male Mongolian) has been widely used as an experimental model for studies of ischemic stroke because the brain blood supply is controlled by only two common carotid arteries. This unusual feature occurs in gerbils because they have an incomplete circle of Willis (Chandler et al., J. Pharmacol. Methods 14:137-146, 1985; Finkelstein et al., Restor. Neurol. Neurosci. 1:387-394, 1990; Levine and Sohn, Arch. Pathol. 87:315-317, 1969; Kahn, Neurology 22:510-515, 1972). A five minute bilateral carotid occlusion results in neuronal cell death that is predominantly localized in the CA1 subfield of the hippocampus. The CA1 neurons degenerate and virtually disappear by 7-8 days after ischemia (Akira, Res. in Immunol. 143:734-736 1992; Crain et al., Neurosci. 27:387-402, 1988). In addition, the gerbil model has the advantage that within one day after ischemia the animals increase by 100% to 200% their general locomotor activity. This readily measurable change can persist for at least eight days in most of the experimental animals (Akira, 1992; Kuroiwa et al., Neurosci. Lett. 122:141-144, 1991; Ohno et al., Eur. J Pharmacol. 193:357-361, 1991; Phillis, Brain Res. Bull. 23:467-470, 1989).
Male Mongolian gerbils were anesthetized with a mixture of isoflurane and oxygen using an inhalation apparatus (Stoelting Instrument Co.). An incision was made in the ventral neck and the common carotid arteries were isolated and occluded completely for a period of 5 minutes using microaneurysm clips. Next, the clips were removed and the incision sutured. The anesthesia was continued until the end of the i.v. injection and infusion period. Mean arterial blood pressure was monitored by a polyethylene catheter implanted in the left or right femoral […] during surgery. […]
GLA measurements were carried out in half hour sessions using the Stoelting Electronic Activity monitor (Shashoua et al., J. Med. Chem. 27:654-659, 1984; Jacob et al., J. Med. Chem. 30:1573-1576, 1987). Each gerbil's activity level was first assessed on days 3 and 1 prior to the experimental ischemia procedure to obtain a base line GLA data, then on days 1, 2, 5, and 7 after the carotid artery occlusion to determine efficacy of drug treatment. […]
Male Mongolian gerbils were anesthetized with a mixture of halothane and oxygen in Phase 1 of surgery and a cannula (an Alzet No. 2002 pump) was implanted subcutaneously in the midscapular region beneath the skin of the animal. […] All surgical procedures were carried out with a strict control of the temperature of each animal; rectal temperatures were monitored and heat was supplied via a temperature regulated heating pad. […]

[5] = tested on: CA1 and CA3 hippocampal neurons; experiment: histological cell density/survival of hippocampal neurons in gerbil brains after forebrain ischemia; type: in vivo, male Mongolian gerbil
Description: At the time of the sacrifice, each animal was deeply anesthetized and perfused transcardially with heparinized saline followed by paraformaldehyde (4%) in phosphate buffered saline. After fixation the brains were placed in 30% sucrose for 3 days, embedded in glutaraldehyde-gelatin, cut frozen into 30μ serial sections for morphometric analysis, and stained with cresyl violet. The cell densities per 1000 microns2 were determined by computer assisted counting of grey level images at 300× viewed through an Axioplan microscope. It was determined that a maximum of 62% of the hippocampal pyramidal cells survived the ischemia in the presence of NMI 9236 as compared to 4% survival for the control saline non-drug treated animals. All analyses were carried out blind.
At 8 days post surgery the gerbils were sacrificed, perfusion fixed with formalin, and each perfused brain was embedded in glutaraldehyde-gelatin. About 300 serial sections (40 microns thick) were cut from each frozen brain, and stained with cresyl violet. Cell morphometric analysis was carried out on one out of every 10 sections by computer-assisted cell density counting of grey level images viewed at 300× through an Axioplan microscope. Focused camera input (Sony CCD) from the microscope to the IBS video screen of the Zeiss IBAS/KONTRON Image analysis system was normalized and segmented before assessing cell number. The average cell density present per a 1000 micron^2 region of the CA1 and CA3 pyramidal cell layers for the left and right side of each were determined. The analysis was carried out blind.

[6] = tested on: AP-1 transcription factor; experiment: EMSA of AP-1 in nuclear extracts of neuroblastoma cultures; type: cell-based, mouse
Description: as §1, §2
Using the electrophoretic mobility shift assay (EMSA) we tested for changes in concentration of transcription factors AP-1 and NF-IL6 in neuroblastoma nuclei as a function of stimulation by peptide NMI-9236. These two factors are well known to function in cell proliferation and differentiation, and to be activated by protein kinase-C. […] Identification of the two observed bands as Jun/Fos heterodimers and Jun/Jun homodimers was based on their electrophoretic migration, as well as antibody studies (data not shown).

[7] = 2 mM glutamate + 12 μg/ml peptide
[8] = 2 mM glutamate + 18 μg/ml peptide
[9] = NB2a mouse neuroblastoma cultures, 5-50 μg/ml
[10] = neuroblastoma cells treated for 20 hours
[11] = 1 mg/kg i.v. @ 1 hr post ischemia, day 8, n=3

## N[C@@H](CCC(=O)O)C(=O)O [glutamate, reference compound]
[1]; 1 mM glutamate alone
  % healthy: 51.5%
  Healthy cells: 35
  Total cells: 68
[1]; 2 mM glutamate alone
  % healthy: 40.8%
  Healthy cells: 62
  Total cells: 156

## D-F-A-I-D-A-P-E (DFAIDAPE) [SEQ ID NO:10]
[2]
  calcium chelation (in words): chelate calcium as tightly as the peptide of SEQ ID NO:3
[2]; fura-2 fluorescence
  calcium chelation effectiveness relative to peptide of SEQ ID NO:4: about half as effective as the peptide of SEQ ID NO:4
[2]; listed as SEQ ID NO: 10
  calcium chelation (in words): chelates calcium

## K-K-D-G-D-G-D-F-A-I-D-A-P-E (KKDGDGDFAIDAPE) [NMI 9236, 14 amino acid peptide]
neurons
  promotion of growth and sprouting of neurons: at least the same extent as its 68 kilodalton parent protein
[1]; [7]
  % healthy: 92%
  Healthy cells: 138
  Total cells: 150
[1]; [8]
  % healthy: 81.6%
  Healthy cells: 80
  Total cells: 98
[3]; 1 μg/ml, in comparison to control
  NF-IL6 activation, densitometric scan of the EMSA: 3-5 fold
[3]; 30 min
  activation of NF-IL6 relative to control: less pronounced
[3]; [9]
  level of NF-IL6 in the nuclei of the cells: increase
[3]; [10]
  activation of NF-IL6 relative to control: strong activation
[3]; serum-free medium, 20 hours
  activation of NF-IL6 relative to control: very strong activation
[4]; 1 mg/kg i.v. (femoral vein) at 1 hour after occlusion, saline control 225%
  average GLA, % of the day 1 data: 85%
[4]; i.v. injection at 10 minutes after the ischemic event, n=3
  effect on GLA (in words): blocked the development of enhanced GLA
[4]; icv delivery by Alzet pump, 1 milligram per ml, 7 days pre- and 7 days post-ischemia, n=4
  GLA, % of own GLA one day prior to surgery: 80%
[4]; subcutaneous (s.c.) injection at 1 hour after the surgery
  GLA value: 200%
[5]; [11]
  Cell Density CA1-Hippocampal field: 13.3 ± 0.82 number of cells/1000 microns^2
  Cell Density CA3-Hippocampal field: 8.82 ± 0.42 number of cells/1000 microns^2
[5]; 1 mg/kg i.v. bolus at 1 hr post ischemia
  neuronal loss in CA1/CA3 versus sham operated controls (in words): essentially all the cells remained intact
[5]; icv into left lateral ventricle, 8 days post-ischemia, left side
  survival of L-CA1 neurons: 52±12%
[5]; icv into left lateral ventricle, 8 days post-ischemia, right (unprotected) side
  survival of R-CA1 neurons: 4±2%
[5]; icv, 8 days post surgery
  L-CA1 cell density as % of level of sham operated control brain: about 50%
[5]; icv, 8 days post surgery, saline controls 0.6
  L-CA1 cell density count: 6.2 per 1000 micron^2
[5]; icv, 8 days post surgery, stated comparable to saline controls
  R-CA1 cell density: ~0.6 per 1000 micron^2
[5]; in the presence of NMI 9236, 4% for control saline animals
  maximum survival of hippocampal pyramidal cells after ischemia: ≤ 62%
[6]
  AP-1 activation, densitometric scans of the EMSA: 3-5 fold
[6]; 30 min
  activation of AP-1 relative to control: less pronounced
[6]; [9]
  level of AP-1 in the nuclei of the cells: increase
[6]; [10]
  activation of AP-1 relative to control: strong activation
[6]; serum-free medium, 20 hours
  activation of AP-1 relative to control: very strong activation
[2]; in the cell culture medium
  concentration at which the peptide completely eliminates fura-2 fluorescence: 1 pg/mL
